Test results reported in US9173871B2, “Oxazole and thiazole compounds as beta-catenin modulators and uses thereof” (New York University, priority 2008, dated 2015).
Blank lines part the entries; values can stand above or below the compound they belong to.

Experiments:
HCT116 cells = test: Flow cytometry cell cycle analysis of HCT116 cells; type: cell-based; details: HCT116, 16 hrs, FIG. 9
Procedure: In order to test the inhibitory effect of candidate compounds on the transcription of endogenous Wnt/β-cat target genes in HCT116 cells, lysates were prepared from cells that were either treated with candidate small molecules or DMSO control. […] Cell cycle arrest of compound treated HCT116 cells was further confirmed by the reduced number of phosphorylated Histone3 (PH3) positive cells, when cultured in the presence of candidate compounds (FIG. 10).
Flow Cytometry analysis was performed on HCT116 cells treated with candidate compounds for 16 hrs per standard protocols. Briefly, compound treated cells were harvested and washed in 1×PBS followed by fixation in 70% Ethanol at 4° C. for 16 hrs. Cells were then washed in 1×PBS and treated with RNAse at 37° C. for 30′. Following extensive washes in 1×PBS, cellular DNA was stained with 500 ug/ml of Propidium Iodide at room temperature for 10′. Cells were washed again in 1×PBS and analysed by flow cytometry on a FACScalibur machine (Beckson Dickinson) at the NYU flow cytometry core facility.

[1] = test system: Wnt/wg pathway, Wnt-responsive luciferase reporter dTF12; test: Wg-responsive dTF12 (TOP12) luciferase reporter assay in Drosophila Clone 8 cells, pathway activated by Axin dsRNA; type: cell-based; details: Drosophila melanogaster; luciferase assay method in Drosophila Clone 8 cells
Source text: The present inventors employed a novel methodology that integrates a “sensitized” chemical genetic high-throughput screen (HTS) with RNA-interference (RNAi) screening technology in order to identify specific small molecule inhibitors of the Wnt pathway in Drosophila cells. As described herein, Drosophila Clone 8 cell-based assay systems developed by the present inventors to investigate the Wnt/wg pathway [DasGupta et al. Science 308, 826-33 (2005)] were used in a small molecule chemical genetic screen to identify specific inhibitors of the pathway. These cell-based assays, which are described in detail below, utilize a Wnt-responsive luciferase reporter […], the activity of which can be determined using […]. The present inventors used the small-molecule library available from the Institute of Chemistry and Cellular Biology (ICCB-Longwood) at Harvard Medical School, Boston, for the screen. […] The resultant activation of the Wnt signaling pathway is then detected by assessing the activity of the Wnt-responsive luciferase reporter gene in the cell-based assay system. […] Primary Small Molecule Screen for the Wingless Signaling Pathway in Drosophila Clone 8 Cells Set up transfection with Wg-reporter ([…]), Normalization vector (PolIII-RL) and dsRNA against […] specific towards Drosophila Axin and lacks any predicted off-targets). 1. Add 40,000 Drosophila Clone 8 cells (in 40 μL) in 384-well plate (white solid bottom, Corning Costar) using the multidrop. 2. Add 20 μLof Transfection mix in each well of a 384-well plate (Corning Costar) using the multidrop. Incubate at 25° C. for 4 days to ensure complete knockdown of Axin. Add small molecule library (Cybio Robot). Incubate 18 hrs. Assay luminescence from the samples using the “Dual-Glo” luciferase kit (Promega Inc.). Specifically, aspirate supernatant and add 20 μL media+20 μL luciferase buffer using the multidrop. Read Firefly Luciferase activity on the EnVision (Perkin Elmer plate reader). Add 20 μL of Stop&Glo using the multidrop. Read Renilla luciferase activity on the EnVision (Perkin Elmer plate reader). The Wnt signaling pathway was induced by the introduction of dsRNAs specific for Axin into Clone 8 cells comprising the Wg-responsive luciferase reporter-gene ([…]). As described herein, Axin is a scaffold protein that negatively regulates Arm/β-cat by promoting its degradation. Thereafter, a selected set of a small molecule library was added to the Clone 8 cell-based assay system to assess the effect of individual compounds on (Axin dsRNA-mediated) activated CRT by monitoring the activity of the Wg-responsive luciferase reporter-gene ([…]). […] For the purpose of Table 11 below, activity of each compound is determined using the luciferase assay method in Drosophila Clone 8 cells.

[2] = test system: Wnt-responsive STF16 luciferase reporter in HEK 293 cells; test: Wnt-responsive STF16 luciferase reporter assay in HEK 293 cells; type: cell-based, mammalian; details: 2.5 ng/μl, Wnt3a conditioned media, FIG. 4
Procedure: HEK 293 cells were transfected with 50 ng each of the Wnt-responsive STF16 luciferase reporter and pCMV-RL normalization reporter using the Lipofectamine LTX (Invitrogen Inc.) in a 96 well plate format. Cells were cultured in DMEM/10% FBS at 37° C. for 2 days following which, they were induced with Wnt3a conditioned media for 1 day and then treated with small molecule compounds to a final concentration of 2.5 ng/μl for approximately 18 hours. Luciferase reporter activity was then measured using the Dual-Glo system (Promega Inc.) on the Envision Plate Reader. Normalized luciferase activity in response to treatment with candidate small molecule compounds was compared to that obtained from cells treated with DMSO. In order to confirm and corroborate the activity of CRT inhibitor compounds in a mammalian context, the present inventors have tested a subset of the inhibitors identified in the context of established mammalian cell lines. […] Briefly, HEK 293 cells were transfected with pSTF16-LF along with the normalization reporter, pCMV-RL and the effect of the compounds on reporter activity in such cells was determined by quantifying the luminescence from the luciferase reporter gene as described in Dasgupta et al. [supra (2005)].

[3] = test system: C57 mg mouse mammary epithelial cell line; test: C57mg transformation assay (Wnt3a induced); type: cell-based; details: 10 ng/μl, 5 days, FIG. 5
Procedure: The transformation assay was carried out in a 96 well format. C57 mg cells were cultured in DMEM/10% FBS supplemented with purified Wnt3a protein (R&D Systems) to a final concentration of […]. Small molecule compounds dissolved in DMSO were added to a final concentration of 10 ng/μl and 0.01% DMSO. Following incubation at 37° C. for 5 days, cells were fixed with 4% Formaldehyde in 1×PBS at RT for 30 min and washed subsequently with 1×PBS at room temperature (RT) for 5 minutes (×3). Cells were then permeabilized in Blocking buffer (0.1% Triton-X/1×PBS/5% Normal Goat Serum) at RT for 20 min, subsequent to which, cells were incubated with anti-β-cat at RT for 1 hour (diluted to 1:1000 in blocking buffer). Subsequently, cells were washed with 1×PBS at RT for 10 minutes (×3) and then incubated with secondary antibody and Alexa-Fluor 488 conjugated phalloidin in Blocking buffer at RT for 1 hour. Following a brief wash in 1×PBS, cells were imaged in PBS buffer using the Array-Scan imaging system.
Transformation of the cell line is evidenced by pronounced changes in morphology, typified by formation of chord-like bundles of cells or foci-forming colonies that break off and float in the media [Wong et al. supra, 1994]. This Wnt responsive phenotype provides a mammalian assay in which to evaluate the inhibitory effect of the small molecule inhibitors identified in the primary screen. Briefly, cells are cultured in Wnt3a conditioned media in the presence or absence of a small molecule inhibitor and morphological analysis conducted using automated microscopy.
The present inventors have established a phenotypic assay using the Wnt-responsive C57 mg mouse mammary epithelial cell line to ascertain the validity of the inhibitory compounds identified in the primary screen. Specifically, addition of Wnt3a conditioned media or purified Wnt3a protein results in cellular transformation, manifested by a pronounced change from an epithelial-cell like morphology to those resembling spindle shaped cells with chord like bundles. […] The Array-Scan imagining system (Cellomics Inc.) is used to image such phenotypic changes in a 96-well plate format so as to gain a quantitative estimate of the degree of the inhibitory effect of the compounds on Wnt3a induced transformation in C57 mg cells. Quantitative analysis of the transformation phenotype is measured by the degree of actin fiber alignment (defined as anisotropy), which is expressed as the standard deviation (SD) of the angles projected by the actin fibers relative to the normal; low SD numbers reflect an increase in Wnt-responsive transformation. This approach allows for objective inferences on the cellular effects of the candidate inhibitors.

Structure (SMILES): Cc1cc(/C=C2\SC(=O)N(c3ccccc3)C2=O)c(C)n1-c1cccnc1 [Compound C14]
cell cycle effect (HCT116 cells): G0/G1 arrest

Structure (SMILES): CCc1ccc(-c2nc(CSCC(=O)NCCc3ccccc3)c(C)o2)cc1 [IIa-333]
IC50 [1]: 4.18 µM

Structure (SMILES): O=C(CCCN1C(=O)/C(=C/c2cccs2)SC1=S)Nc1ccc(O)cc1 [IIa-432]
IC50 [1]: 4.76 µM
inhibition of Wnt responsive luciferase reporter activity in HEK-293 cells [2]: poor inhibitors
inhibition of Wnt3a induced C57 mg transformation [3]: significant inhibition

Structure (SMILES): Cc1ccc(-c2nc(CSCC(=O)NC3CC3)c(C)o2)cc1 [IIa-722]
IC50 [1]: 1260 µM
inhibition of Wnt3a induced C57 mg transformation [3]: partial reduction

The remaining compounds from weak to strong by IC50 [1], led by results:

IC50 [1]: 3.51 µM
Structure (SMILES): CCc1ccc(-c2nc(CSCC(=O)NCc3ccccc3)c(C)o2)cc1 [IIa-66]

IC50 [1]: 3.06 µM
Structure (SMILES): COc1cccc(/C=C2\SC(=S)N(CCCC(=O)O)C2=O)c1OC [IIa-143]

IC50 [1]: 1.58 µM
Structure (SMILES): CCc1ccc(-c2nc(CSCC(=O)NC3CC3)c(C)o2)cc1 [IIa-719]
inhibition of Wnt3a induced C57 mg transformation [3]: partial reduction

IC50 [1]: 1.1 µM
Structure (SMILES): CCc1ccc(-c2nc(CSCC(=O)N3CCc4ccccc43)c(C)o2)cc1 [IIa-2102]
inhibition of Wnt3a induced C57 mg transformation [3]: partial reduction
